The values that follow come from publication PMC10580965 (Microbiology Spectrum, 2023).

In brackets after ≈: the same amount, converted by molar mass. Read-outs that look alike come from different tables or passages of the source. Bridge positions count the residues as written; N and C are the ends. Square brackets hold non-standard residues; d marks the D form. Peptide text beside a SMILES is read from it. * marks the point of attachment. Ileψ(thiazoline)Cys = CC[C@H](C)[C@H](N)C1=N[C@H](C(=O)*)CS1; dOrn = NCCC[C@@H](N)C(=O)O; X1 = CC[C@H](C)CCCCC(=O)*; Dab = NCC[C@H](N)C(=O)O Bounds are passed on as bounds.

Experiment [1] concerns C. pseudotuberculosis ΔlysX.
Experiment [2] has as its system C. pseudotuberculosis ΔalaDAGS.

For `CC[C@H](C)[C@H](N)C1=N[C@H](C(=O)N[C@@H](CC(C)C)C(=O)N[C@H](CCC(=O)O)C(=O)N[C@H](C(=O)N[C@H]2CCCCNC(=O)[C@H](CC(N)=O)NC(=O)[C@@H](CC(=O)O)NC(=O)[C@H](Cc3cnc[nH]3)NC(=O)[C@@H](Cc3ccccc3)NC(=O)[C@H]([C@@H](C)CC)NC(=O)[C@@H](CCCN)NC2=O)[C@@H](C)CC)CS1` [Bacitracin] ({Ileψ(thiazoline)Cys}-L[dE]IK[dOrn]I[dF]H[dD]N; lactam 4-C (inferred); N-terminus assumed), the “wt/ΔlysX (fold-change)” value in experiment [1] stood at 2 fold-change. In experiment [1] (24 h), the “MIC ΔlysX” value is 3.2 µg/mL (≈ 2.25 µM). In experiment [2] (24 h), the “MIC ΔalaDAGS” value was 6.4 µg/mL (≈ 4.5 µM).
Regarding `CO/N=C(\C(=O)N[C@@H]1C(=O)N2C(C(=O)O)=C(CSc3nc(=O)c(=O)[nH]n3C)CS[C@H]12)c1csc(N)n1` [Ceftriaxone], the “protective advantage conferred by lysX” value in experiment [1] is on record as “no protective advantage”.
With `CNC(C)C1CCC(N)C(OC2C(N)CC(N)C(OC3OCC(C)(O)C(NC)C3O)C2O)O1` (stereo not shown) [Gentamicin], the “MIC ΔlysX” value in experiment [1] is 0.078 µg/mL (≈ 0.163 µM).
As for `NC[C@H]1O[C@H](O[C@H]2[C@H](O)[C@@H](O[C@H]3O[C@H](CO)[C@@H](O)[C@H](N)[C@H]3O)[C@H](N)C[C@@H]2N)[C@H](O)[C@@H](O)[C@@H]1O` [Kanamycin], in experiment [1], the “MIC ΔlysX” value was 1.25 µg/mL (≈ 2.58 µM) and the “wt/ΔlysX (fold-change)” value worked out at 8 fold-change. For the same compound, the “MIC ΔalaDAGS” value in experiment [2] is on record as 10 µg/mL (≈ 20.6 µM).
On to `CC[C@H](C)[C@H](NC(=O)CN)C(=O)NCC(=O)N[C@@H](C)C(=O)N[C@H](C(=O)N[C@@H](CC(C)C)C(=O)N[C@@H](CCCCN)C(=O)N[C@H](C(=O)N[C@@H](CC(C)C)C(=O)N[C@H](C(=O)N[C@H](C(=O)NCC(=O)N[C@@H](CC(C)C)C(=O)N1CCC[C@H]1C(=O)N[C@@H](C)C(=O)N[C@@H](CC(C)C)C(=O)N[C@H](C(=O)N[C@@H](CO)C(=O)N[C@@H](Cc1c[nH]c2ccccc12)C(=O)N[C@H](C(=O)N[C@@H](CCCCN)C(=O)N[C@@H](CCCNC(=N)N)C(=O)N[C@@H](CCCCN)C(=O)N[C@@H](CCCNC(=N)N)C(=O)N[C@@H](CCC(N)=O)C(=O)N[C@@H](CCC(N)=O)C(N)=O)[C@@H](C)CC)[C@@H](C)CC)[C@@H](C)O)[C@@H](C)O)C(C)C)C(C)C` [Melittin], for which the “wt/ΔlysX (fold-change)” value in experiment [1] is reported as >4 fold-change. For the same compound, in experiment [1] (24 h), the “MIC ΔlysX” value came to 10 µg/mL (≈ 3.51 µM). In experiment [2] (24 h), the “MIC ΔalaDAGS” value was >40 µg/mL.
As for `CC[C@H](C)CCCCC(=O)N[C@@H](CCN)C(=O)N[C@H](C(=O)N[C@@H](CCN)C(=O)N[C@H]1CCNC(=O)[C@H]([C@@H](C)O)NC(=O)[C@H](CCN)NC(=O)[C@H](CCN)NC(=O)[C@H](CC(C)C)NC(=O)[C@@H](Cc2ccccc2)NC(=O)[C@H](CCN)NC1=O)[C@@H](C)O` [Polymyxin B] (X1-[Dab]T[Dab][Dab][Dab][dF]L[Dab][Dab]T; lactam 4-C (inferred); N-terminus assumed), in experiment [1] (24 h), the “MIC ΔlysX” value was found to be 10 µg/mL (≈ 8.31 µM). The “MIC ΔalaDAGS” value in experiment [2] (24 h) worked out at 640 µg/mL (≈ 532 µM).
`CCCNC[C@]1(O)[C@H](C)O[C@@H](O[C@H]2[C@H](C)[C@@H](O[C@@H]3O[C@H](C)C[C@H](N(C)C)[C@H]3O)[C@](C)(O)C[C@@H](C)CN[C@H](C)[C@@H](O)[C@](C)(O)[C@@H](CC)OC(=O)[C@@H]2C)C[C@@]1(C)OC` [Tulathromycin]: in experiment [1], the “MIC ΔlysX” value was 1.25 µg/mL (≈ 1.55 µM) and the “wt/ΔlysX (fold-change)” value is 2 fold-change. Moreover, the “MIC ΔalaDAGS” value in experiment [2] came out at 2.5 µg/mL (≈ 3.1 µM).
`CN[C@H](CC(C)C)C(=O)N[C@H]1C(=O)N[C@@H](CC(N)=O)C(=O)N[C@H]2C(=O)N[C@H]3C(=O)N[C@H](C(=O)N[C@H](C(=O)O)c4cc(O)cc(O)c4-c4cc3ccc4O)[C@H](O)c3ccc(c(Cl)c3)Oc3cc2cc(c3O[C@@H]2O[C@H](CO)[C@@H](O)[C@H](O)[C@H]2O[C@H]2C[C@](C)(N)[C@H](O)[C@H](C)O2)Oc2ccc(cc2Cl)[C@H]1O` [Vancomycin]: the “wt/ΔlysX (fold-change)” value in experiment [1] stood at 2 fold-change. Besides, in experiment [1] (24 h), the “MIC ΔlysX” value was 0.375 µg/mL (≈ 0.259 µM). Moreover, in experiment [2] (24 h), the “MIC ΔalaDAGS” value stood at 0.75 µg/mL (≈ 0.518 µM).
Consider Nisin, for which, in experiment [1], the “MIC ΔlysX” value is 2.5 µg/mL and the “wt/ΔlysX (fold-change)” value was 32 fold-change. Besides, the “MIC ΔalaDAGS” value in experiment [2] is on record as 80 µg/mL.
